What all share (test): relative viability (nuclei count vs DMSO), 5 days (fraction); higher = more cells survive
Compound in the test “AZD1208 + Lapatinib”: N[C@@H]1CCCN(c2c(/C=C3\SC(=O)NC3=O)cccc2-c2ccccc2)C1 [AZD1208] + CS(=O)(=O)CCNCc1ccc(-c2ccc3ncnc(Nc4ccc(OCc5cccc(F)c5)c(Cl)c4)c3c2)o1 [Lapatinib] (partner 2 µM)
The gist of the method: (§1)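 Cells from lung cancer lines were seeded into 1536-well plates and, one day later, dosed by pin tool. Treatments were either a single drug or a fixed dose of an anchor drug with five library-drug doses (not always all listed) in √10 steps. After 5 days, nuclei were stained in a one-step fixation (final 0.05% Triton X-100, 1% formaldehyde, 1 ug/ml Hoechst) and counted on 4× images, and relative viability is the treated-to-vehicle nuclei ratio, as the median of duplicate plates.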

Compound in the test “AZD1208 + Vorinostat”: N[C@@H]1CCCN(c2c(/C=C3\SC(=O)NC3=O)cccc2-c2ccccc2)C1 [AZD1208] + O=C(CCCCCCC(=O)Nc1ccccc1)NO [Vorinostat] (partner 1 µM)
The gist of the method:
as §1

Compound in the test “XMD14-99 + Pictilisib”: CN1CCN(CC1)C2=CC(=C(C=C2)NC3=NC(=C(S3)C(=O)C4=C(C=CC=C4Cl)Cl)N)OC [XMD14-99] + CS(=O)(=O)N1CCN(Cc2cc3nc(-c4cccc5[nH]ncc45)nc(N4CCOCC4)c3s2)CC1 [Pictilisib] (partner 1 µM)
The gist of the method: as §1

Compound in the test “AZD1208 + Foretinib”: N[C@@H]1CCCN(c2c(/C=C3\SC(=O)NC3=O)cccc2-c2ccccc2)C1 [AZD1208] + COc1cc2c(Oc3ccc(NC(=O)C4(C(=O)Nc5ccc(F)cc5)CC4)cc3F)ccnc2cc1OCCCN1CCOCC1 [Foretinib] (partner 0.25 µM)
The gist of the method: as §1

Drawing on the supplement of paper PMC10307832, this text covers relative viability for one cell line.

Consider UMC-11, for which the relative viability in the test with AZD1208 + Lapatinib (first compound 0.08 µM) amounted to 0.819; in the test with AZD1208 + Lapatinib (first compound 0.253 µM), 0.739; in the test with AZD1208 + Lapatinib (first compound 0.8 µM) it was 0.679; in the test with AZD1208 + Lapatinib (first compound 2.53 µM) it was 0.487; with AZD1208 + Lapatinib (first compound 8 µM) it was 0.466; with AZD1208 + Vorinostat (first compound 0.08 µM) it was 0.362. Besides, the relative viability came to 0.354 with AZD1208 + Vorinostat (first compound 0.253 µM); 0.3 in the test with AZD1208 + Vorinostat (first compound 0.8 µM); 0.294 with AZD1208 + Vorinostat (first compound 2.53 µM); 0.211 with AZD1208 + Vorinostat (first compound 8 µM); 0.802 in the test with XMD14-99 + Pictilisib (first compound 0.08 µM); 0.856 with XMD14-99 + Pictilisib (first compound 0.8 µM). The relative viability with XMD14-99 + Pictilisib (first compound 2.53 µM) was determined as 0.795; with XMD14-99 + Pictilisib (first compound 8 µM), 0.663; with AZD1208 + Foretinib (first compound 0.08 µM) it was 0.884; with AZD1208 + Foretinib (first compound 0.253 µM) it was 0.877; with AZD1208 + Foretinib (first compound 0.8 µM), 0.77; with AZD1208 + Foretinib (first compound 2.53 µM), 0.741. For the same cell line, the relative viability with AZD1208 + Foretinib (first compound 8 µM) amounted to 0.458.
